For this assay, the target named is T1, MdesOR115 (with MdesOrco; HEK293/TMO/MdesOR115) (Mayetiola destructor, UniProt A0A1D8GZG1).
T1 construct: with Odorant receptor coreceptor
T1 sequence (A0A1D8GZG1 1-412): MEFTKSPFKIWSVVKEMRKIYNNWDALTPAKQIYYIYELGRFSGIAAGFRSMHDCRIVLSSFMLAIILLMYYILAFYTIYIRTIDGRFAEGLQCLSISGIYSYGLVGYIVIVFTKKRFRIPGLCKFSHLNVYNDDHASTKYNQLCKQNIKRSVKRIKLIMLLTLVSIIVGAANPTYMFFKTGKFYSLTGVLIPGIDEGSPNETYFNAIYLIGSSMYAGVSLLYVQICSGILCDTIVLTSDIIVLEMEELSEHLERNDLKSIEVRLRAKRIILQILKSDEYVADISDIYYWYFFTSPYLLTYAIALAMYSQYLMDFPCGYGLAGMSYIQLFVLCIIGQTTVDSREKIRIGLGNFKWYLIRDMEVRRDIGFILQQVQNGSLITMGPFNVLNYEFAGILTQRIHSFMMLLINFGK
T1 sequence (A0A1D8GZG0 1-466 partner): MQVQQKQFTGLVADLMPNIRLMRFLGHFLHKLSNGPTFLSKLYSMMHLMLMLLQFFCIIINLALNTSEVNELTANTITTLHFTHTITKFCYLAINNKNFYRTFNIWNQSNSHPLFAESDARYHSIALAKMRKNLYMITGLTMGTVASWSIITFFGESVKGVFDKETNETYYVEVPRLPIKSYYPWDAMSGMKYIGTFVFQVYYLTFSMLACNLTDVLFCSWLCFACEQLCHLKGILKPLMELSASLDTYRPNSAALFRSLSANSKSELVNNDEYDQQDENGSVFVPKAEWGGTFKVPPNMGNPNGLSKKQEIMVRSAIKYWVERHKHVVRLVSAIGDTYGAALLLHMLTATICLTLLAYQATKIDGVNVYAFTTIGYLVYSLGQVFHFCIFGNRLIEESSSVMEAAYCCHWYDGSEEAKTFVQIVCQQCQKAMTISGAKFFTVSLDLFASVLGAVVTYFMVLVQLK
In words: fluorescent calcium assay, HEK293 cells, dose-response. In kind it is cell-based.

These results are taken from paper PMC5013046, “A Sex Pheromone Receptor in the Hessian Fly Mayetiola destructor (Diptera, Cecidomyiidae)” (Frontiers in Cellular Neuroscience, 2016).

By EC50 is commonly meant the concentration that produces a half-maximal response. On to `CC/C=C/C=C/CCCCC[C@H](C)OC(C)=O` [2S-8E,10E-13:OAc, (2S,8E,10E)-8,10-tridecadien-2-yl acetate], for which the EC50 lay in the range of 2020 to 3690 nM.
